Results published in patent US20230102554A1 (GB002, INC., priority 2019, published 2023).

How the values were obtained:
[1] = target: T1, Human PDGFRα, cytoplasmic domain (GST-PDGFRα) (Homo sapiens, UniProt P16234); experiment: Human PDGFRα biochemical inhibition assay (off-chip Mobility Shift Assay)
T1 construct: made in house

[2] = target: T2, Human PDGFRβ, cytoplasmic domain (GST-PDGFRβ) (Homo sapiens, UniProt P09619); experiment: Human PDGFRβ biochemical inhibition assay (off-chip Mobility Shift Assay)
T2 construct: made in house
How it was run: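 GST-tagged cytoplasmic domain (aa 557-1106) from baculovirus was incubated 1 h at room temperature with compound, CSKtide, ATP at Km and Mg²⁺ in HEPES buffer, pH 7.5. Phosphorylated and unphosphorylated peptide were separated by off-chip mobility shift, and the product ratio P/(P+S) gave percent inhibition.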

T2 sequence (P09619 with tags, fused parts or gaps): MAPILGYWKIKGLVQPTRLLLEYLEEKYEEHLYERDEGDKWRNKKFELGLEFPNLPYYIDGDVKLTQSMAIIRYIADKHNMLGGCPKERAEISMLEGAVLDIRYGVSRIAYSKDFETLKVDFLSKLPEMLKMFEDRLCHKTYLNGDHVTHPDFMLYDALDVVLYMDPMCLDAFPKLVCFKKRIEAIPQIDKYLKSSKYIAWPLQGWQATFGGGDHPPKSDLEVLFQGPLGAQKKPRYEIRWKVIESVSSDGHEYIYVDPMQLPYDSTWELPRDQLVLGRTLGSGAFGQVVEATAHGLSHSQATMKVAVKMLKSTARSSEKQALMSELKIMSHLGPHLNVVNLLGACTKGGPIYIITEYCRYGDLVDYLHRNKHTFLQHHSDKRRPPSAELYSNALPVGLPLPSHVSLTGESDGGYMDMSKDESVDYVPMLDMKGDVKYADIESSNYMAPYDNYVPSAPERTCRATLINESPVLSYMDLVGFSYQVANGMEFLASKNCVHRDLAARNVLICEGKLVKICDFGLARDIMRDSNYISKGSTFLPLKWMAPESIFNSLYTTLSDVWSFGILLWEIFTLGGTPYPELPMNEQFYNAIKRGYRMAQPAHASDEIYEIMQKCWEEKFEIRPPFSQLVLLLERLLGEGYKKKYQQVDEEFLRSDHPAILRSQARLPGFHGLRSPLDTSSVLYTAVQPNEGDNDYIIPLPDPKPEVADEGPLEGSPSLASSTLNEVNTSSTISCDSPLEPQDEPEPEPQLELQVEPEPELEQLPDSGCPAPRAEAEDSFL
T1 sequence (P16234 550-1089 T674I): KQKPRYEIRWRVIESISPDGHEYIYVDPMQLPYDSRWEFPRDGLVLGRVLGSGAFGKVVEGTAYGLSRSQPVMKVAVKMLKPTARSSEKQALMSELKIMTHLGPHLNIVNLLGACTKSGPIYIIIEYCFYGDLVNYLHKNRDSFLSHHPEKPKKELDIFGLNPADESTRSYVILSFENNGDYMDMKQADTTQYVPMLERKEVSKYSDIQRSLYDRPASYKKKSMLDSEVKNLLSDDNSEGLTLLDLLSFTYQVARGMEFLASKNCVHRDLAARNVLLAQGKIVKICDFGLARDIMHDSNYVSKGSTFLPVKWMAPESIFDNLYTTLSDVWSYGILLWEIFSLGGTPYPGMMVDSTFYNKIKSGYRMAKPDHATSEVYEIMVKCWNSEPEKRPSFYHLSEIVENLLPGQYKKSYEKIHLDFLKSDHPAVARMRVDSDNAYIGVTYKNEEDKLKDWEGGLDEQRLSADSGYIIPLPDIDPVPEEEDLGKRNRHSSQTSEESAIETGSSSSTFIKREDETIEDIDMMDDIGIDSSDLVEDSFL

| SMILES | IC50 [1] [µM] | IC50 [2] [µM] |
| --- | --- | --- |
| CCn1cc2ncc(N[C@@H](C)c3cccc(NC(=O)Cc4ccc5c(n4)OCCC5)c3)nc2n1 [Compound 720, (S)-2-(3,4-dihydro-2H-pyrano[2,3-b]pyridin-7-yl)-N-(3-(1-((2-ethyl-2H-pyrazolo[3,4-b]pyrazin-6-yl)amino)ethyl)phenyl)acetamide] | < 0.3 | ≥ 1 |
| C[C@H](Nc1cnc2cnn(C)c2n1)c1cccc(NC(=O)c2cncc(Cl)c2)c1 [Compound 109, (S)-5-chloro-N-(3-(1-((1-methyl-1H-pyrazolo[3,4-b]pyrazin-6-yl)amino)ethyl)phenyl)nicotinamide] | < 0.3 | < 0.3 |
| COc1cc(C(=O)Nc2cccc([C@H](C)Nc3cnc4cnn(C)c4n3)c2)cnc1C [Compound 252, (S)-5-methoxy-6-methyl-N-(3-(1-((1-methyl-1H-pyrazolo[3,4-b]pyrazin-6-yl)amino)ethyl)phenyl)nicotinamide] | < 0.3 | < 0.3 |
| Cc1cncc(C(=O)Nc2cccc([C@H](C)Nc3cnc4c(c3)OCCN4)c2)c1 [Compound 45] | 0.3 to 1 | ≥ 1 |
| CCn1cc2ncc(N[C@@H](C)c3cccc(NC(=O)c4ccc(CN5CCCC5)nc4)c3)nc2n1 [Compound 388, (S)-N-(3-(1-((2-ethyl-2H-pyrazolo[3,4-b]pyrazin-6-yl)amino)ethyl)phenyl)-6-(pyrrolidin-1-ylmethyl) nicotinamide] | ≥ 1 | ≥ 1 |
| CCn1cc2ncc(N[C@@H](C)c3cc(NC(=O)c4cc(C)c(CN5CCOCC5)c(F)c4)ccc3C)nc2n1 [Compound 526, (S)-N-(3-(1-((2-ethyl-2H-pyrazolo[3,4-b]pyrazin-6-yl)amino)ethyl)-4-methylphenyl)-3-fluoro-5-methyl-4-(morpholinomethyl)benzamide] | < 0.3 | < 0.3 |
| C[C@H](Nc1cnc2cn(CC3CCC3)nc2n1)c1cc(NC(=O)c2cnc(C(F)(F)F)s2)ccc1F [Compound 390, (S)-N-(3-(1-((2-(cyclobutylmethyl)-2H-pyrazolo[3,4-b]pyrazin-6-yl)amino)ethyl)-4-fluorophenyl)-2-(trifluoromethyl)thiazole-5-carboxamide] | < 0.3 | < 0.3 |
| CCn1cc2ncc(N[C@@H](C)c3cc(NC(=O)c4ccc(OC(F)F)nc4)ccc3F)nc2n1 [Compound 304, (S)-6-(difluoromethoxy)-N-(3-(1-((2-ethyl-2H-pyrazolo[3,4-b]pyrazin-6-yl)amino)ethyl)-4-fluorophenyl)nicotinamide] | < 0.3 | < 0.3 |
| Cc1n[nH]c2ncc(N[C@@H](C)c3cccc(NC(=O)c4cc(C(F)(F)F)n(C)n4)c3)nc12 [Compound 547, (S)-1-methyl-N-(3-(1-((3-methyl-1H-pyrazolo[3,4-b]pyrazin-5-yl)amino)ethyl)phenyl)-5-(trifluoromethyl)-1H-pyrazole-3-carboxamide] | < 0.3 | < 0.3 |
| CCn1cc2ncc(N[C@@H](C)c3cccc(NC(=O)Cc4ccc(F)c(C)c4)c3)nc2n1 [Compound 632, (S)-N-(3-(1-((2-ethyl-2H-pyrazolo[3,4-b]pyrazin-6-yl)amino)ethyl)phenyl)-2-(4-fluoro-3-methylphenyl) acetamide] | < 0.3 | < 0.3 |
| CCn1cc2ncc(N[C@@H](C)c3cc(NC(=O)Cc4ccc5c(n4)CCC5)ccc3C)nc2n1 [Compound 719, (S)-2-(6,7-dihydro-5H-cyclopenta[b]pyridin-2-yl)-N-(3-(1-((2-ethyl-2H-pyrazolo[3,4-b]pyrazin-6-yl)amino)ethyl)-4-methylphenyl)acetamide] | < 0.3 | < 0.3 |
| CC(C)c1cc(C(=O)Nc2cccc([C@H](C)Nc3cnc4[nH]ccc4n3)c2)no1 [Compound 553, (S)-N-(3-(1-((5H-pyrrolo[2,3-b]pyrazin-2-yl)amino)ethyl)phenyl)-5-isopropylisoxazole-3-carboxamide] | < 0.3 | < 0.3 |
| CCn1cc2ncc(N[C@@H](C)c3cccc(NC(=O)c4cncc(F)c4)c3)nc2n1 [Compound 355, (S)-N-(3-(1-((2-ethyl-2H-pyrazolo[3,4-b]pyrazin-6-yl)amino)ethyl)phenyl)-5-fluoronicotinamide] | 0.3 to 1 | ≥ 1 |
| C[C@H](Nc1cnc2cnn(C)c2n1)c1cccc(NC(=O)c2cncc(C(C)(C)O)c2)c1 [Compound 107, (S)-5-(2-hydroxypropan-2-yl)-N-(3-(1-((1-methyl-1H-pyrazolo[3,4-b]pyrazin-6-yl)amino)ethyl)phenyl) nicotinamide] | < 0.3 | < 0.3 |
| CCc1ccc(CC(=O)Nc2ccc(C)c([C@H](C)Nc3cnc4cn(CC)nc4n3)c2)nc1 [Compound 713, (S)-N-(3-(1-((2-ethyl-2H-pyrazolo[3,4-b]pyrazin-6-yl)amino)ethyl)-4-methylphenyl)-2-(5-ethylpyridin-2-yl) acetamide] | < 0.3 | 0.3 to 1 |
| C[C@H](Nc1cnc2cnn(C)c2n1)c1cccc(NC(=O)c2ccc(NC3CC3)nc2)c1 [Compound 121, (S)-6-(cyclopropylamino)-N-(3-(1-((1-methyl-1H-pyrazolo[3,4-6]pyrazin-6-yl)amino)ethyl)phenyl)nicotinamide] | < 0.3 | < 0.3 |
| CCn1cc2ncc(N[C@@H](C)c3cccc(NC(=O)c4ccc(N5CCCC5)c(Cl)c4)c3)nc2n1 [Compound 389, (S)-3-chloro-N-(3-(1-((2-ethyl-2H-pyrazolo[3,4-b]pyrazin-6-yl)amino)ethyl)phenyl)-4-(pyrrolidin-1-yl)benzamide] | < 0.3 | < 0.3 |
| CCn1cc2ncc(N[C@@H](C)c3cc(NC(=O)Cc4cnc(C)c(F)c4)ccc3C)nc2n1 [Compound 707, (S)-N-(3-(1-((2-ethyl-2H-pyrazolo[3,4-b]pyrazin-6-yl)amino)ethyl)-4-methylphenyl)-2-(5-fluoro-6-methylpyridin-3-yl)acetamide] | < 0.3 | 0.3 to 1 |
| CCn1cc2ncc(N[C@@H](C)c3cccc(NC(=O)Cc4cc(F)cc(Cl)c4)c3)nc2n1 [Compound 641, (S)-2-(3-chloro-5-fluorophenyl)-N-(3-(1-((2-ethyl-2H-pyrazolo[3,4-b]pyrazin-6-yl)amino)ethyl)phenyl)acetamide] | < 0.3 | < 0.3 |
| CCn1cc2ncc(N[C@@H](C)c3cc(NC(=O)Cc4cc(CN5CCN(C)CC5)c(C)cn4)ccc3C)nc2n1 [Compound 722, (S)-N-(3-(1-((2-ethyl-2H-pyrazolo[3,4-b]pyrazin-6-yl)amino)ethyl)-4-methylphenyl)-2-(5-methyl-4-((4-methylpiperazin-1-yl)methyl)pyridin-2-yl)acetamide] | < 0.3 | ≥ 1 |
| CCn1cc2ncc(N[C@@H](C)c3cccc(NC(=O)c4cnc(Br)c(C)c4)c3)nc2n1 [Compound 350, (S)-6-bromo-N-(3-(1-((2-ethyl-2H-pyrazolo[3,4-b]pyrazin-6-yl)amino)ethyl)phenyl)-5-methylnicotinamide] | < 0.3 | < 0.3 |
| CCn1cc2ncc(N[C@@H](C)c3cccc(NC(=O)c4ccc(CN5CCN(C)C(=O)C5)c(C)c4)c3)nc2n1 [Compound 479, (S)-N-(3-(1-((2-ethyl-2H-pyrazolo[3,4-b]pyrazin-6-yl)amino)ethyl)phenyl)-3-methyl-4-((4-methyl-3-oxopiperazin-1-yl)methyl)benzamide] | < 0.3 | < 0.3 |
